pIC50: −log10 of the molar value.
Assays:
[1] = molecular target: T1, PDE5 obtained from bovine aorta (Bos taurus, UniProt Q28156); assay: cGMP-PDE inhibition assay using PDE5 obtained from bovine aorta; type: biochemical; conditions: read-out: PDE5 IC50 (Bov. aorta)
T1 construct: from tissue; host or cells: bovine aorta
Description: (§1) cGMP-PDE activity of compounds of the present invention was measured using a one-step assay adapted from Wells et al., Biochim. Biophys. Acta, 384, 430 (1975). The reaction medium contained 50 mM Tris-HCl, pH 7.5, 5 mM magnesium acetate, 250 μg/ml 5′-Nucleotidase, 1 mM EGTA, and 0.15 μM 8-[H^3]-cGMP. Unless otherwise indicated, the enzyme used was a human recombinant PDE5 (ICOS Corp., Bothell, Wash.).
(§2) Compounds of the invention were dissolved in DMSO finally present at 2% in the assay.

human recombinant PDE5 = molecular target: T2, human recombinant PDE5 (Homo sapiens, UniProt O76074); assay: cGMP-PDE one-step inhibition assay, human recombinant PDE5; type: biochemical; conditions: 0.15 μM 8-[H3]-cGMP, 30 min incubation
T2 construct: host or cells: Saccharomyces cerevisiae, protease-deficient strain BJ2-54 (ATCC 74465)
Description: The compounds of structural formula (I) were tested for an ability to inhibit PDE5. The ability of a compound to inhibit PDE5 activity is related to the IC50 value for the compound, i.e., the concentration of inhibitor required for 50% inhibition of enzyme activity. The IC50 value for compounds of structural formula (I) were determined using recombinant human PDE5.
The production of recombinant human PDEs and the IC50 determinations can be accomplished by well-known methods in the art. Exemplary methods are described as follows:
Recombinant production of human PDE1B, PDE2, PDE4A, PDE4B, PDE4C, PDE4D, PDE5, and PDE7 was carried out similarly to that described in Example 7 of U.S. Pat. No. 5,702,936, incorporated herein by reference, except that the yeast transformation vector employed, which is derived from the basic ADH2 plasmid described in Price et al., Methods in Enzymology, 185, pp. 308-318 (1990), incorporated yeast ADH2 promoter and terminator sequences and the Saccharomyces cerevisiae host was the protease-deficient strain BJ2-54 deposited on Aug. 31, 1998 with the American Type Culture Collection, Manassas, Va., under accession number ATCC 74465. Transformed host cells were grown in 2×SC-leu medium, pH 6.2, with trace metals, and vitamins. After 24 hours, YEP medium-containing glycerol was added to a final concentration of 2×YET/3% glycerol. Approximately 24 hr later, cells were harvested, washed, and stored at −70° C. […]
Cell pellets (29 g) were thawed on ice with an equal volume of Lysis Buffer (25 mM Tris HCl, pH 8, 5 mM MgCl2, 0.25 mM DTT, 1 mM benzamidine, and 10 μM ZnSO4). Cells were lysed in a Microfluidizer® (Microfluidics Corp.) using nitrogen at 20,000 psi. The lysate was centrifuged and filtered through 0.45 μm disposable filters. The filtrate was applied to a 150 mL column of Q SEPHAROSE® Fast-Flow (Pharmacia). The column was washed with 1.5 volumes of Buffer A (20 mM Bis-Tris Propane, pH 6.8, 1 mM MgCl2, 0.25 mM DTT, 10 μM ZnSO4) and eluted with a step gradient of 125 mM NaCl in Buffer A followed by a linear gradient of 125-1000 mM NaCl in Buffer A. Active fractions from the linear gradient were applied to a 180 mL hydroxyapatite column in Buffer B (20 mM Bis-Tris Propane (pH 6.8), 1 mM MgCl2, 0.25 mM DTT, 10 μM ZnSO4, and 250 mM KCl). After loading, the column was washed with 2 volumes of Buffer B and eluted with a linear gradient of 0-125 mM potassium phosphate in Buffer B. Active fractions were pooled, precipitated with 60% ammonium sulfate, and resuspended in Buffer C (20 mM Bis-Tris Propane, pH 6.8, 125 mM NaCl, 0.5 mM DTT, and 10 μM ZnSO4). The pool was applied to a 140 mL column of […]® S-300 HR and eluted with Buffer C. Active fractions were diluted to 50% glycerol and stored at −20° C.
as §1, §2

Row | SMILES | pIC50 [1] | melting point | pIC50 (human recombinant PDE5)
1 | O=C1[C@H]2Cc3c([nH]c4ccccc34)[C@@H](c3ccc4c(c3)OCO4)N2C(=O)CN1CCO [Example 10] | 8.30 | – | –
2 | COc1ccc([C@@H]2c3[nH]c4ccccc4c3C[C@@H]3C(=O)N(CCN(C)C)CC(=O)N23)cc1 [Example 9] | 7.15 | – | –
3 | O=C1[C@H]2Cc3c([nH]c4ccccc34)[C@@H](c3ccc4c(c3)OCO4)N2C(=O)CN1O [Example 2, (6R,12aR)-6-Benzo[1,3]dioxo-5-yl-2-hydroxy-2,3,6,7,12,12a-hexahydropyrazino[1′,2′:1,6]-pyrido[3,4-b]indole-1,4-dione] | – | 276 to 283 °C (dec.) | 8.12
4 | NC(=O)CN1CC(=O)N2[C@H](c3ccc4c(c3)OCO4)c3[nH]c4ccccc4c3C[C@@H]2C1=O [Example 20] | 8.00 | – | –
5 | COC(=O)CN1CC(=O)N2[C@H](c3ccc4c(c3)OCO4)c3[nH]c4ccccc4c3C[C@@H]2C1=O [Example 19] | 8.40 | – | –
6 | COc1ccc([C@@H]2c3[nH]c4ccccc4c3C[C@@H]3C(=O)N(CCCN(C)C)CC(=O)N23)cc1 [Example 11] | 6.19 | – | –
7 | COc1ccc([C@@H]2c3[nH]c4ccccc4c3C[C@@H]3C(=O)N(CCCN4CCN(C)CC4)CC(=O)N23)cc1 [Example 12] | 7.00 | – | –
8 | NS(=O)(=O)c1ccc(CCN2CC(=O)N3[C@H](c4ccc5c(c4)OCO5)c4[nH]c5ccccc5c4C[C@@H]3C2=O)cc1 [Example 67] | – | – | 8.21

Source: patent publication US6911542B2, “Pyrazino[1′,2′:1,6]pyrido[3,4b]indole derivatives” (Lilly Icos LLC., priority 2000, dated 2005)
